Broadly, the Ki is the dissociation constant of the complex between target and ligand, obtained from inhibition or displacement. Usually IC50 stands for the concentration at which inhibition is half-maximal. As usually defined, the chromatographic logP is lipophilicity estimated from chromatographic retention. Low readings indicate a more hydrophilic compound, high ones a more lipophilic compound.

One data set addresses T1, σ1 receptors (Rattus norvegicus, UniProt Q9R0C9).
T1 construct: aliquots of diluted rat brain membrane (300 μg of protein); from tissue; host or cells: male Sprague-Dawley rat brain membrane homogenate
Nature of the data set: Radioreceptor binding assay, σ1 (3H-(+)-pentazocine, rat brain membrane). The note with it: determined by ANSTO LifeSciences, read-out: Affinity σ1 (Ki). The procedure:
(§1) The test compounds were solubilised in DMSO and diluted in 50 mmol/L Tris-HCl (pH 8.0). Membrane homogenates were prepared from male Sprague-Dawley rat brains as previously described. The binding of σ ligands to σ1 and σ2 receptors was determined according to literature methods with minor modification. Briefly, the percentage of inhibition was determined by incubating, in triplicate, aliquots of diluted rat brain membrane (300 μg of protein) with 10^-11 to 10^-5 mol/L concentrations of the studied drugs in 50 mmol/L Tris-HCl (pH 8.0) with ^3H-(+)-pentazocine (3 nmol/L) at 37°C for 2.5 h for σ1 receptors or with ^3H-DTG (10 nmol/L) and (+)-pentazocine (1 μmol/L) at 25°C for 1.5 h for σ2 receptors. […] After incubation, the reaction was terminated by rapid filtration using a Brandel 48-well cell harvester (Brandel, Gaithersburg, MD, USA) over Whatman GF/B glass fibre filters that were soaked in a solution of 0.5% polyethyleneimine at 4°C for at least 2 h before use. […] The filters were collected and the amount of bound radioactivity was measured using a β-scintillation counter (Tri-Carb 2100TR, Packard Instrument Co., Downers Grove, IL, USA). The percentage inhibition of the studied drugs, at concentrations of 10^-5 and 10^-7 mol/L, was also determined for the cross activity at a number of other neuroreceptors (Caliper LifeSciences, MA, USA). […]

The target in the next data set is T2, σ2 receptors (Rattus norvegicus, UniProt Q5U3Y7).
T2 sequence (Q5U3Y7 1-176): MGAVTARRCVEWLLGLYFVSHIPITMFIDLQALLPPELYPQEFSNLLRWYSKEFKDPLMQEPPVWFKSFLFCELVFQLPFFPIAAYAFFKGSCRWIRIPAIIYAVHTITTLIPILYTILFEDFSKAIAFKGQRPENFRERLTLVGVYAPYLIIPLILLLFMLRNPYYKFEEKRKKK
As to the kind of experiment: Radioreceptor binding assay, σ2 (3H-DTG + (+)-pentazocine, rat brain membrane). The note with it: for Ki: rat brain membrane, 3H-DTG with (+)-pentazocine, determined by ANSTO LifeSciences, read-out: Affinity σ2 (Ki); for Selectivity σ2:σ1: ratio of Ki values, Table 2. The method, then: The test compounds were solubilised in DMSO and diluted in 50 mmol/L Tris-HCl (pH 8.0). Membrane homogenates were prepared from male Sprague-Dawley rat brains as previously described. The binding of σ ligands to σ1 and σ2 receptors was determined according to literature methods with minor modification. Briefly, the percentage of inhibition was determined by incubating, in triplicate, aliquots of diluted rat brain membrane (300 μg of protein) with 10^-11 to 10^-5 mol/L concentrations of the studied drugs in 50 mmol/L Tris-HCl (pH 8.0) with ^3H-(+)-pentazocine (3 nmol/L) at 37°C for 2.5 h for σ1 receptors or with ^3H-DTG (10 nmol/L) and (+)-pentazocine (1 μmol/L) at 25°C for 1.5 h for σ2 receptors. […] After incubation, the reaction was terminated by rapid filtration using a Brandel 48-well cell harvester (Brandel, Gaithersburg, MD, USA) over Whatman GF/B glass fibre filters that were soaked in a solution of 0.5% polyethyleneimine at 4°C for at least 2 h before use. Filters were washed three times with 5 mL of ice-cold wash buffer (50 mmol/L Tris HCl, pH 7.4). The filters were collected and the amount of bound radioactivity was measured using a β-scintillation counter (Tri-Carb 2100TR, Packard Instrument Co., Downers Grove, IL, USA). The percentage inhibition of the studied drugs, at concentrations of 10^-5 and 10^-7 mol/L, was also determined for the cross activity at a number of other neuroreceptors (Caliper LifeSciences, MA, USA). The IC50 values were then converted to apparent Ki values using the Cheng-Prusoff equation and radioligand Kd values.

A further data set addresses Opioid, non-selective. Nature of the data set: Cross activity at neuroreceptors (Caliper LifeSciences): opioid. The class given is binding. The note with it: determined by Caliper LifeSciences; read-out: Affinity Opioid, non-selective (IC50). The procedure:
as §1

A further data set concerns the target Dopamine, non-selective. Nature of the data set: Cross activity at neuroreceptors (Caliper LifeSciences): dopamine. The class given is binding. The note with it: determined by Caliper LifeSciences; read-out: Affinity Dopamine, non-selective (IC50). The procedure: as §1
The target of the next data set is Serotonin, non-selective. Nature of the data set: Cross activity at neuroreceptors (Caliper LifeSciences): serotonin. In kind it is binding. The conditions noted are these: determined by Caliper LifeSciences; read-out: Affinity Serotonin, non-selective (IC50). The method, then:
as §1

In another data set the target is T3, CB1, non-selective (Homo sapiens, UniProt P21554).
T3 construct: Caliper LifeSciences
As to the kind of experiment: Cross activity at neuroreceptors (Caliper LifeSciences): CB1. The class given is binding. The note with it: determined by Caliper LifeSciences; read-out: Affinity CB1, non-selective (IC50). The procedure:
as §1

The target in data set [1] is Muscarinic, non-selective. As to the kind of experiment: Cross activity at neuroreceptors (Caliper LifeSciences): muscarinic. In kind it is binding. The note with it: determined by Caliper LifeSciences; read-out: Affinity Muscarinic, non-selective (IC50). The method, then: as §1
Data set [2] can be described thus: Lipophilicity by RP-HPLC (logP7.5). The note with it: logP7.5, phosphate buffer pH 7.5. In kind it is physicochemical. The procedure: The lipophilicity of SIG343 and SIG353 were assessed using RP-HPLC by determining the logP7.5 value using literature procedures.
For data set [3] the following is noted: rats, intravenous bolus; cited from earlier work.

T1 sequence (Q9R0C9 whole entry): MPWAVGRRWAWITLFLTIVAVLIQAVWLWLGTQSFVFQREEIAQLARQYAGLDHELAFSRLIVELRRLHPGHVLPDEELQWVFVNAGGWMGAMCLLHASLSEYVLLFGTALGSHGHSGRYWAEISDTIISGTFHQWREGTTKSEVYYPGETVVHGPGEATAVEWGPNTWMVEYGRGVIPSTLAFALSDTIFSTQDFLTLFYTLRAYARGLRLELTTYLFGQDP
T3 sequence (P21554 whole entry): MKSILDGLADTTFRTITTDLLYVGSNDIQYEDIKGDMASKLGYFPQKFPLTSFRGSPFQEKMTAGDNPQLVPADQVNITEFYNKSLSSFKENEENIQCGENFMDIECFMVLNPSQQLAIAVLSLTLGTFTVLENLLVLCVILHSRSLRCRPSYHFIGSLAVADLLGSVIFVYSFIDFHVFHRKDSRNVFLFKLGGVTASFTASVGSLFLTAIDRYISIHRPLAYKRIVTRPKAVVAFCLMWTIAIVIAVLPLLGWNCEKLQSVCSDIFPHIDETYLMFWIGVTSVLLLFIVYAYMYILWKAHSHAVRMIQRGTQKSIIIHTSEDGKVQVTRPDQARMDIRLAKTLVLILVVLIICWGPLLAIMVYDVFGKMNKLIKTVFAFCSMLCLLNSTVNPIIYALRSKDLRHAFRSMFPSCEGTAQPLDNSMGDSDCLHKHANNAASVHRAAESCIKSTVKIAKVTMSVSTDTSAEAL

With `COc1cc2c(cc1OC)CN(CCCCN1C(=O)c3ccc(F)cc3C1=O)CC2` [SIG343, 2-(4-(6,7-Dimethoxy-3,4-dihydroisoquinolin-2(1H)-yl)butyl)-5-fluoroisoindoline-1,3-dione], the values for the Ki at σ1 receptors and on σ2 receptors were 1.6 µM and 0.008 µM, respectively. For the same compound, the “Selectivity σ2:σ1” value at σ2 receptors is recorded as 200. The IC50 is more than 10 µM at Opioid, non-selective; more than 10 µM on Dopamine, non-selective; more than 10 µM on Serotonin, non-selective; more than 10 µM on CB1, non-selective; more than 10 µM in data set [1]. In data set [2], the chromatographic logP came to 3.11 ± 0.08.

With `O=C(CCCN1CCC(O)(c2ccc(Cl)cc2)CC1)c1ccc(F)cc1` [haloperidol], the Terminal half-life in data set [3] is 1.5 h.

As for `COc1cc2c(cc1OC)CN(CCCCCN1C(=O)c3ccc(F)cc3C1=O)CC2` [SIG353, 2-(5-(6,7-Dimethoxy-3,4-dihydroisoquinolin-2(1H)-yl)pentyl)-5-fluoroisoindoline-1,3-dione], the figures for the Ki on σ1 receptors and at σ2 receptors were 0.266 µM and 0.0024 µM, respectively. For the same compound, the “Selectivity σ2:σ1” value at σ2 receptors was determined as 110. Besides, the IC50 on Opioid, non-selective was more than 10 µM; at Dopamine, non-selective, more than 10 µM; at Serotonin, non-selective it was more than 10 µM; at CB1, non-selective it was more than 10 µM; in data set [1] it was more than 10 µM. The chromatographic logP in data set [2] amounted to 3.47 ± 0.09.

The values above are taken from paper PMC3878827, “Synthesis and biological characterisation of ^18F-SIG343 and ^18F-SIG353, novel and high selectivity σ2 radiotracers, for tumour imaging properties” (EJNMMI Research, 2013).
